The values below come from patent US20190175557A1, “COMPOUNDS USEFUL FOR DECREASING INTERFERON LEVEL” (priority 2016, published 2019).

Data set [1] concerns HIV-stimulated pDC. As to the kind of experiment: Activation markers and cytokine mRNA in HIV-stimulated pDC (RT-qPCR, flow cytometry). It is filed as cell-based, human.
Data set [2] in a line: in vitro.
The subject of data set [3] is HIV or LPS stimulated monocytes. Put plainly: IFN-γ mRNA in monocytes stimulated with HIV or LPS (RT-qPCR). It is filed as cell-based. Particulars: RT-qPCR normalized to RPL13A. How it is done: Data shown are representative of two independent experiments.
Monocytes were pre-incubated with clobenpropit (CB), IT1t or chloroquine before being activated by HIV and LPS. IFN-γ levels were measured by RT-qPCR and normalized to RPL13A mRNA expression.

The target in data set [4] is H4R (Homo sapiens, UniProt Q9H3N8). It is filed as cell-based.
Sequence of H4R (Q9H3N8 whole entry): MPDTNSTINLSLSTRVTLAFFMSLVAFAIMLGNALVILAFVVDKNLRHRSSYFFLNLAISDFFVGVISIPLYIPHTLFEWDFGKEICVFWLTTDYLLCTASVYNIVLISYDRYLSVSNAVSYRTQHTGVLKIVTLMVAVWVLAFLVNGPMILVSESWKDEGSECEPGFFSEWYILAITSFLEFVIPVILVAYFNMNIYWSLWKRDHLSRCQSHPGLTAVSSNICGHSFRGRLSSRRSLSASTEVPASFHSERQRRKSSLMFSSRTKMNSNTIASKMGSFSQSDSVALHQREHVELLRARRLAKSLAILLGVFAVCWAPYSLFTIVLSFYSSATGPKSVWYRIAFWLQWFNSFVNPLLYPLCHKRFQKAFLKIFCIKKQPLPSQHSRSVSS
For data set [5], the system named is pDC. As to the kind of experiment: Cytotoxicity of compounds on cultured pDC. The following applies: 10 μM.
Data set [6] has as its system HIV-stimulated pDC. Put plainly: IFN-α / type I IFN production by HIV-stimulated purified pDC (ELISA). It is filed as cell-based, human.
The subject of data set [7] is pristane-induced SLE in Balb/c mice. Put plainly: Pristane-induced systemic lupus erythematosus (SLE) model in Balb/c mice. Particulars: 3, 10, 30 mg/kg IP QD. It is filed as in vivo, mouse. The procedure: Receive and quarantine (SOP 560) 70 female Balb/C (20-25 g) mice and house in filter-topped cages supplied with autoclaved bedding.
The animals are weighed, ear tagged for individual identification and randomly assigned to 8 treatment groups of 8 animals each and two groups of 3 animals (for pre-tolerance at 30 mg/kg of survival).
The test items compounds clobenpropit (CB) and IT1t are stored at 4° C.
Mouse weights are recorded twice a week, and daily observations for clinical signs.
Collected sera are stored at −80° C. for measurements of autoantibody on weeks 4, 8 and 10. (Predose will kept at −80° C. for potential use). Anti-dsDNA level is a standard screening readout for identifying efficacy of test compounds in a SLE model.
Measurements: weeks 4, 8, 10: (1) autoantibody (anti-dsDNA), collagen and cytokines TNFα, IL-6 and TRAIL by ELISA and (2) ANA antibody by IFA.

The target of data set [8] is T1, CXCR4 (Homo sapiens, UniProt P61073). As to the kind of experiment: CXCR4 internalization and co-localization in pDC (microscopy). It is filed as cell-based. The following applies: cells incubated with CB, compared to untreated cells. How it is done:
Cells were then incubated with anti-CXCR4 antibody (Biolegend, San Diego, Calif.) in saturation buffer PBS-BSA 0.5% for membrane staining or in permeabilizing buffer containing 1% saponin with monoclonal antibody anti-TRAIL (Biolegend, San Diego, Calif., USA). […] Nucleus was stained using DAPI (Molecular Probes, Paisley, UK). Slides were mounted with Fluoromount-G (eBioscience, CA, USA) and scanned with a Nikon Eclipse 90i Upright microscope (Nikon Instruments Europe, Badhoevedorp, The Netherlands) using a 100× Plan Apo VC piezo objective (NA 1.4) and Chroma bloc filters (ET-DAPI, ET-GFP) and were subsequently deconvoluted with a Meinel algorithm and 8 iterations and analyzed using Metamorph® (MDS Analytical Technologies, Winnersh, UK). TRAIL/DAPI/Overlay/Confocal plane: Representative 2D focal plan. Overlay with bright: Bright. […]
In other cases, cells were cultured overnight in media alone then were washed in ice-cold PBS-BSA 0.2% and stained with CXCR4 antibody (R&D Systems) for 1 hour at 4° C. […] Data are expressed as the mean percentage ±SEM mean channel fluorescence intensity (MFI) values for residual surface expression and intracellular staining. […]
7 pictures were taken from each slide for each Z section framing the nucleus. Quantification of the colocalization in the cytoplasm of purified pDC using Mander's Coefficient was obtained after analyze by JACoP pluging in ImageJ. […]

Data set [9] has as its system HIV-stimulated pDC. As to the kind of experiment: TRAIL relocalization to the membrane of HIV-stimulated pDC (3D microscopy). It is filed as cell-based, human. How it is done: Cells were then incubated with anti-CXCR4 antibody (Biolegend, San Diego, Calif.) in saturation buffer PBS-BSA 0.5% for membrane staining or in permeabilizing buffer containing 1% saponin with monoclonal antibody anti-TRAIL (Biolegend, San Diego, Calif., USA). […] Nucleus was stained using DAPI (Molecular Probes, Paisley, UK). Slides were mounted with Fluoromount-G (eBioscience, CA, USA) and scanned with a Nikon Eclipse 90i Upright microscope (Nikon Instruments Europe, Badhoevedorp, The Netherlands) using a 100× Plan Apo VC piezo objective (NA 1.4) and Chroma bloc filters (ET-DAPI, ET-GFP) and were subsequently deconvoluted with a Meinel algorithm and 8 iterations and analyzed using Metamorph® (MDS Analytical Technologies, Winnersh, UK). TRAIL/DAPI/Overlay/Confocal plane: Representative 2D focal plan. Overlay with bright: Bright. Reconvolution overlays: 2D projections of the maximum intensity pixels along the Z-axis.
7 pictures were taken from each slide for each Z section framing the nucleus. Quantification of the colocalization in the cytoplasm of purified pDC using Mander's Coefficient was obtained after analyze by JACoP pluging in ImageJ.

For data set [10], the target named is T1, CXCR4.

T1 sequence (P61073 whole entry): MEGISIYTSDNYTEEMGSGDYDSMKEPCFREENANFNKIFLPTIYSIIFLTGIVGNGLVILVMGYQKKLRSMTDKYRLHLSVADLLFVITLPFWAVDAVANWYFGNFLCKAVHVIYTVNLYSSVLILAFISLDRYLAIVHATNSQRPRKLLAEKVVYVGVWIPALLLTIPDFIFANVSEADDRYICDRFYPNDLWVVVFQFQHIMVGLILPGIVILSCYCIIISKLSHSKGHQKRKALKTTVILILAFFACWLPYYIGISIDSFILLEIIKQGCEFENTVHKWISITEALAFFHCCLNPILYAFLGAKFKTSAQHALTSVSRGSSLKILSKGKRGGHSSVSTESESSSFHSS

Take `NC(=NCc1ccc(Cl)cc1)SCCCc1cnc[nH]1` [Clobenpropit, clobenpropit]: the “iNOS or IL-15 gene expression” value in data set [1] (HIV-1-stimulated pDC, RT-qPCR) is “neither CB nor FFN-511 affected”. For the same molecule, the “transcription of virus-induced genes (TRAIL, IFNs, IL6, IL8, IL10, CXCL10, ISG56) induced in pDC by HIV-1” value in [1] (RT-qPCR profiling, normalized to RPL13A) is recorded as “dramatically inhibited”. The CC50 in data set [2] was 417 ± 6 µM. Also, the “IFN-γ expression by HIV or LPS stimulated monocytes” value in [3] is listed as “inhibit”. Besides, in [4], the “effect of H4R knock down on inhibitory activity on IFN-α, IFN-β and TRAIL productions by HIV-stimulated pDC” value is given as “did not block”. Further, in data set [5], the “cytotoxicity on purified pDC” value is given as “no cytotoxic effect”. Also, the “IFN-α production kinetics by HIV-stimulated pDC” value in data set [6] (after 9 h of incubation) is recorded as “inhibited”. Also, the “inhibitory effect on pDC activation / IFN-α production by HIV-1” value in [6] (purified pDC, 10 μM) was “stronger inhibitory effect than histamine”. Besides, in [6] (purified pDC, 10 μM, ELISA), the “reduction of levels of IFN-α secreted following HIV stimulation” value was “approximately 90%”. The “symptoms of pristane-Induced Systemic Lupus Erythematosus” value in data set [7] is on record as “reduce symptoms”. In [7] (compared to dose started date), the “body weight during the study” value is “no loss of body weight”. Further, the ds-DNA level result in [7] (compared to group 1 (vehicle)) is reported as “inhibition”. In data set [8], the “intracellular / extracellular CXCR4 in pDC” value is on record as “most of CXCR4 was detected intracellularly”. The “TRAIL localization to the cell membrane in HIV-stimulated pDC” value in data set [9] is recorded as “significantly inhibited”. Besides, the “effect of CXCR4 silencing on the inhibitory effect” value in data set [10] (pDC activated by a CCR5-tropic (R5) HIV-1 and Flu) is given as “blocked”. Moreover, in data set [10] (pDC stimulated by CXCR4-tropic HIV-1), the “effect of CXCR4 gene silencing on the inhibitory effect on type I IFN and TRAIL” value is reported as “suppressed”.
